Bounds are passed on as bounds.

The first assay concerns the target T1, Human ATX protein (Homo sapiens, UniProt Q13822).
T1 construct: made in house
Put plainly: ATX biochemical FRET assay with FS-3 substrate. The conditions noted are these: FRET substrate FS-3 2 μM, ATX 1.0 μg/mL, 30 minutes pre-incubation, 2 hours at room temperature; read-out: IC50. A digest of the protocol: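 Enzyme at 1.0 μg/mL final, pre-incubated with compound (10-point, 3-fold series) for 30 min at RT in Tris pH 7.4 buffer with NaCl, KCl, CaCl2, MgCl2 and 1 mg/mL fatty-acid-free BSA. After FS-3 addition, 2 h at RT protected from light; fluorescence at 485/538 nm.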
What is called IC50 is the concentration at which inhibition is half-maximal. In the case of `CC[C@H]1CC[C@@H](Oc2ccc3ccc([C@H](C)N[C@@H]4C[C@H](C(=O)O)C4(C)C)cc3c2C(F)(F)F)CC1` [Example 117b, (1S,3R)-3-(((S)-1-(7-((cis-4-ethylcyclohexyl)oxy)-8-(trifluoromethyl)naphthalen-2-yl)ethyl)amino)-2,2-dimethylcyclobutanecarboxylic acid], the half-maximal inhibitory concentration (IC50) was at most 100 nM.

In the case of `C[C@@H](N[C@H]1C[C@H](C(=O)O)C1(C)C)c1ccc2ccc(O[C@H]3CC[C@@H](C)CC3)c(C(F)(F)F)c2c1` [Example 114c, (1S,3S)-2,2-dimethyl-3-(((R)-1-(7-((cis-4-methylcyclohexyl)oxy)-8-(trifluoromethyl)naphthalen-2-yl)ethyl)amino)cyclobutanecarboxylic acid], the IC50 is at most 100 nM. With `CCC(c1ccc2ccc(O[C@H]3CC[C@@H](C(F)(F)F)CC3)c(C(F)(F)F)c2c1)N1CCC(C(=O)O)CC1` (stereo partly drawn) [Example 45, 1-(1-(8-(trifluoromethyl)-7-((cis-4-(trifluoromethyl)cyclohexyl)oxy)naphthalene-2-yl)propyl)piperidine-4-carboxylic acid], the IC50 is at most 250 nM. As for `CCC(c1ccc2ccc(O[C@H]3CC[C@@H](CC)CC3)c(C(F)(F)F)c2c1)N1CCC(C(=O)O)CC1` (stereo partly drawn) [Example 60, 1-(1-(7-((cis-4-ethylcyclohexyl)oxy)-8-(trifluoromethyl)naphthalen-2-yl)propyl)piperidine-4-carboxylic acid], the 50% inhibitory concentration (IC50) was at most 250 nM. Same read-out and setting: then `CC[C@H]1CC[C@@H](Oc2ccc3ccc(C(C)N4CCC(C(=O)O)CC4)cc3c2C(F)(F)F)CC1` (stereo partly drawn) [Example 57, 1-(1-(7-((cis-4-ethylcyclohexyl)oxy)-8-(trifluoromethyl)naphthalen-2-yl)ethyl)piperidine-4-carboxylic acid], with at most 100 nM; and `CC[C@H]1CC[C@@H](Oc2ccc3ccc(CN4CCC[C@H](CC(=O)O)C4)cc3c2C(F)(F)F)CC1` [Example 53, 2-((R)-1-((7-((cis-4-ethylcyclohexyl)oxy)-8-(trifluoromethyl)naphthalen-2-yl)methyl)piperidin-3-yl)acetic acid], with at most 500 nM. As to `C[C@@H](N[C@H]1C[C@@H](C(=O)O)C1(C)C)c1ccc2ccc(O[C@H]3CC[C@@H](C)CC3)c(C(F)(F)F)c2c1` [Example 114d, (1R,3S)-2,2-dimethyl-3-(((R)-1-(7-((cis-4-methylcyclohexyl)oxy)-8-(trifluoromethyl)naphthalen-2-yl)ethyl)amino)cyclobutanecarboxylic acid], the IC50 was at most 500 nM.

For `CC[C@H]1CC[C@@H](Oc2ccc3ccc([C@H](C)N[C@H]4CC[C@@H](C(=O)O)CC4)cc3c2C(F)(F)F)CC1` [Example 135a, cis-4-(((S)-1-(7-((cis-4-ethylcyclohexyl)oxy)-8-(trifluoromethyl)naphthalen-2-yl)ethyl)amino)cyclohexanecarboxylic acid], the IC50 was at most 100 nM. For the molecule `CC(NC1CC(C(=O)O)C1(C)C)c1ccc2ccc(O[C@H]3CC[C@@H](C)CC3)c(C(F)(F)F)c2c1` (stereo partly drawn) [Example 82, 2,2-dimethyl-3-((1-(7-((cis-4-methylcyclohexyl)oxy)-8-(trifluoromethyl)naphthalen-2-yl)ethyl)amino)cyclobutanecarboxylic acid], the IC50 is at most 100 nM. Still for that read-out and setting: then `CC(N[C@H]1CC[C@@H](C(=O)O)CC1)c1ccc2ccc(O[C@H]3CC[C@@H](C(F)(F)F)CC3)c(C(F)(F)F)c2c1` (stereo partly drawn) [Example 129, cis-4-((1-(8-(trifluoromethyl)-7-((cis-4-(trifluoromethyl)cyclohexyl)oxy)naphthalen-2-yl)ethyl)amino)cyclohexanecarboxylic acid], with at most 100 nM; and `C[C@H](N[C@H]1CC[C@@H](C(=O)O)CC1)c1ccc2ccc(O[C@H]3CC[C@@H](C(F)(F)F)CC3)c(C(F)(F)F)c2c1` [Example 136a, cis-4-(((S)-1-(8-(trifluoromethyl)-7-((cis-4-(trifluoromethyl)cyclohexyl)oxy)naphthalen-2-yl)ethyl)amino)cyclohexanecarboxylic acid], with at most 100 nM. The same measure, in the same setting: then `CC(C)(C)[C@H]1CC[C@H](Nc2cc3cc(C(=O)N[C@H]4CC[C@H](C(=O)O)CC4)ccc3cn2)CC1` [Example 155, trans-4-(3-((trans-4-(tert-butyl)cyclohexyl)amino)isoquinoline-6-carboxamido)cyclohexanecarboxylic acid], with at most 100 nM; and `CC(c1ccc2ccc(O[C@H]3CC[C@@H](C)CC3)c(C(F)(F)F)c2c1)N1CCC(C(=O)O)CC1` (stereo partly drawn) [Example 80, 1-(1-(7-((cis-4-methylcyclohexyl)oxy)-8-(trifluoromethyl)naphthalen-2-yl)ethyl)piperidine-4-carboxylic acid], with at most 250 nM.

The assay is the same for the next values; noted with them: IC50, FRET substrate FS-3 2 μM, ATX 1.0 μg/mL, 30 minutes pre-incubation, 2 hours at room temperature.
`C[C@@H](c1ccc2ccc(O[C@H]3CC[C@@H](C(F)(F)F)CC3)c(C(F)(F)F)c2c1)N1C2CCC1CC(C(=O)O)C2` (stereo partly drawn) [Example 12a, 8-{(S)-1-[7-(cis-4-trifluoromethyl-cyclohexyloxy)-8-trifluoromethyl-naphthalen-2-yl]-ethyl}-8-aza-bicyclo[3.2.1]octane-3-carboxylic acid] displayed an IC50 of at most 500 nM. Same read-out and setting: then `CC(c1ccc2ccc(O[C@H]3CC[C@@H](C)CC3)c(C#N)c2c1)N1C2CCC1CC(C(=O)O)C2` (stereo partly drawn) [Example 101, 8-(1-(8-cyano-7-((cis-4-methylcyclohexyl)oxy)naphthalen-2-yl)ethyl)-8-azabicyclo[3.2.1]octane-3-carboxylic acid], with at most 100 nM; and `O=C(O)C1CC2CCCC(C1)N2Cc1ccc2ccc(O[C@H]3CC[C@@H](C(F)(F)F)CC3)c(Cl)c2c1` (stereo partly drawn) [Example 27, 9-((8-chloro-7-((cis-4-(trifluoromethyl)cyclohexyl)oxy)naphthalen-2-yl)methyl)-9-azabicyclo[3.3.1]nonane-3-carboxylic acid], with at most 100 nM; and `CC(c1ccc2ccc(O[C@H]3CC[C@@H](C)CC3)c(C(F)(F)F)c2c1)N1C2CCCC1CC(C(=O)O)C2` (stereo partly drawn) [Example 5, 9-{1-[7-(cis-4-methyl-cyclohexyloxy)-8-trifluoromethyl-naphthalen-2-yl]-ethyl}-9-aza-bicyclo[3.3.1]nonane-3-carboxylic acid], with at most 100 nM. Molecule `C[C@H]1CC[C@@H](Oc2ccc3ccc(C(=O)N4C5CCC4CC(C(=O)O)C5)cc3c2C(F)(F)F)CC1` (relative stereo) [Example 24, 8-[7-(cis-4-methyl-cyclohexyloxy)-8-trifluoromethyl-naphthalene-2-carbonyl]-8-azabicyclo[3.2.1]octane-3-carboxylic acid] gave a 50% inhibitory concentration (IC50) of at most 250 nM.

In the case of `O=C(O)C1CC2CCC(C1)N2Cc1ccc2ccc(O[C@H]3CC[C@@H](C(F)(F)F)CC3)c(Cl)c2c1` (stereo partly drawn) [Example 26, 8-((8-chloro-7-((cis-4-(trifluoromethyl)cyclohexyl)oxy)naphthalen-2-yl)methyl)-8-azabicyclo[3.2.1]octane-3-carboxylic acid], the IC50 was at most 250 nM. Still for that read-out and setting: to `CC(c1cc2c(C(F)(F)F)c(O[C@H]3CC[C@@H](C(F)(F)F)CC3)ccc2cc1F)N1C2CCC1CC(C(=O)O)C2` (stereo partly drawn) [Example 140, 8-(1-(3-fluoro-8-(trifluoromethyl)-7-((cis-4-(trifluoromethyl)cyclohexyl)oxy)naphthalen-2-yl)ethyl)-8-azabicyclo[3.2.1]octane-3-carboxylic acid] belongs at most 100 nM; to `CC[C@H]1CC[C@@H](Oc2ccc3ccc(C(C)N4C5CCCC4CC(C(=O)OC)C5)cc3c2C(F)(F)F)CC1` (stereo partly drawn) [Example 132, methyl 9-(1-(7-((cis-4-ethylcyclohexyl)oxy)-8-(trifluoromethyl)naphthalen-2-yl)ethyl)-9-azabicyclo[3.3.1]nonane-3-carboxylate], at most 250 nM; to `CC[C@H]1CC[C@@H](Oc2ccc3ccc(C(C)N4C5CCC4CC(C(=O)O)C5)cc3c2Cl)CC1` (stereo partly drawn) [Example 65, 8-(1-(8-chloro-7-((cis-4-ethylcyclohexyl)oxy)naphthalen-2-yl)ethyl)-8-azabicyclo[3.2.1]octane-3-carboxylic acid], at most 250 nM. Molecule `CC[C@H]1CC[C@@H](Oc2ccc3ccc(C(C)N4C5CCC4CC(C(=O)O)C5)cc3c2C#N)CC1` (stereo partly drawn) [Example 73, 8-(1-(8-cyano-7-((cis-4-ethylcyclohexyl)oxy)naphthalen-2-yl)ethyl)-8-azabicyclo[3.2.1]octane-3-carboxylic acid] showed an IC50 of at most 100 nM. The molecule `CC[C@H]1CC[C@@H](Oc2ccc3ccc(C(C)N4C5CCCC4CC(C(=O)O)C5)cc3c2C#N)CC1` (stereo partly drawn) [Example 74, 9-(1-(8-cyano-7-((cis-4-ethylcyclohexyl)oxy)naphthalen-2-yl)ethyl)-9-azabicyclo[3.3.1]nonane-3-carboxylic acid] returned an IC50 of at most 100 nM.

`CC[C@H]1CC[C@@H](Oc2ccc3ccc([C@@H](C)N4C5CCC4CC(C(=O)O)C5)cc3c2C(F)(F)F)CC1` (stereo partly drawn) [Example 144b, 8-((R)-1-(7-((cis-4-ethylcyclohexyl)oxy)-8-(trifluoromethyl)naphthalen-2-yl)ethyl)-8-azabicyclo[3.2.1]octane-3-carboxylic acid] displayed an IC50 of at most 100 nM. Still for that read-out and setting: then `CC(c1cc2c(C(F)(F)F)c(O[C@H]3CC[C@@H](C)CC3)ccc2cc1F)N1C2CCC1CC(C(=O)O)C2` (stereo partly drawn) [Example 139, 8-(1-(3-fluoro-7-((cis-4-methylcyclohexyl)oxy)-8-(trifluoromethyl)naphthalen-2-yl)ethyl)-8-azabicyclo[3.2.1]octane-3-carboxylic acid], with at most 100 nM. The same measure, in the same setting: then `CC[C@H]1CC[C@@H](Oc2ccc3ccc(CN4C5CCC4CC(C(=O)O)C5)cc3c2C(F)(F)F)CC1` (stereo partly drawn) [Example 51, 8-((7-((cis-4-ethylcyclohexyl)oxy)-8-(trifluoromethyl)naphthalen-2-yl)methyl)-8-azabicyclo[3.2.1]octane-3-carboxylic acid], with at most 100 nM.
